According to patent US20230271965A1, “BICYCLIC HETEROARENES AND METHODS OF THEIR USE” (Kineta, Inc., priority 2020, published 2023):
Read-outs that look alike come from different tables or passages of the source.

Tests used:
[1] = biological target: T1, full-length human PIKFYVE (GST-PIKFYVE) (Homo sapiens, UniProt Q9Y2I7, L932S/Q1183K/Q995L/S1033A/S696N/T998S); assay: PIKfyve biochemical assay (ADP-Glo Kinase assay, Carna Biosciences)
T1 construct: A full-length human PIKFYVE [1-2098 (end) amino acids; purchased Carna Biosciences; host or cells: baculovirus expression system
Method: PIKfyve Biochemical Assay. The biochemical PIKFyve inhibition assays were run by Carna Biosciences according to proprietary methodology based on the Promega ADP-Glo™ Kinase assay. […] GST-PIKFYVE was purified by using glutathione sepharose chromatography and used in an ADP-Glo™ Kinase assay (Promega). Reactions were set up by adding the test compound solution, substrate solution, ATP solution and kinase solution, each at 4×final concentrations. Reactions were prepared with assay buffer (50 mM MOPS, 1 mM DTT, pH7.2), mixed, and incubated in black 384 well polystyrene plates for 1 hour at room temperature. ADP-Glo™ reagent was then added for 40 minutes, followed by kinase detection reagent for an additional 40 minutes. The kinase activity was evaluated by detecting relative light units on a luminescence plate reader. Samples were run in duplicate from 10 μM to 3 nM. […] IC50 values were calculated from concentration vs % inhibition curves by fitting to a four-parameter logistic curve.
The biochemical PIKFyve inhibition assays were run by Carna Biosciences according to proprietary methodology based on the Promega ADP-Glo™ Kinase assay. […] GST-PIKFYVE was purified by using glutathione sepharose chromatography and used in an ADP-Glo™ Kinase assay (Promega).
Reactions were set up by adding the test compound solution, substrate solution, ATP solution and kinase solution, each at 4×final concentrations. Reactions were prepared with assay buffer (50 mM MOPS, 1 mM DTT, pH7.2), mixed, and incubated in black 384 well polystyrene plates for 1 hour at room temperature. ADP-Glo™ reagent was then added for 40 minutes, followed by kinase detection reagent for an additional 40 minutes. The kinase activity was evaluated by detecting relative light units on a luminescence plate reader. Samples were run in duplicate from 10 uM to 3 nM. […] IC50 values were calculated from concentration vs % inhibition curves by fitting to a four-parameter logistic curve.

[2] = tested on: PIKFYVE TDP-43 yeast strain; assay: Propidium iodide viability assay, PIKFYVE TDP-43 yeast strain; type: cell-based; details: Saccharomyces cerevisiae; reduction in PI-positive cells, 24 hours, values plotted in FIG. 7
Excerpt: Generation of TDP-43 yeast model expressing human PIKfyve. Human PIKFYVE (“entry clone”) was cloned into pAG416GPDccdB (“destination vector”) according to standard Gateway cloning protocols (Invitrogen, Life Technologies). The resulting pAG416GPD-PIKFYVE plasmids were amplified in E. coli and plasmid identity confirmed by restriction digest and Sanger sequencing. Lithium acetate/polyethylene glycol-based transformation was used to introduce the above PIKFYVE plasmid into a BY4741 yeast strain auxotrophic for the ura3 gene and deleted for two transcription factors that regulate the xenobiotic efflux pumps, a major efflux pump, and FAB1, the yeast ortholog of PIKFYVE (MATa, snq2::KILeu2; pdr3::KIura3; pdr1::NATMX; fab1::G418^R, his3; leu2; ura3; met15; LYS2+) (FIG. 2).
Transformed yeast were plated on solid agar plates with complete synthetic media lacking uracil (CSM-ura) and containing 2% glucose. Individual colonies harboring the control or PIKFYVE TDP-43 plasmids were recovered. A plasmid containing wild-type TDP-43 under the transcriptional control of the GAL1 promoter and containing the hygromycin-resistance gene as a selectable marker was transformed into the fab1::G418^R pAG416GPD-PIKFYVE yeast strain (FIG. 1). Transformed yeast were plated on CSM-ura containing 2% glucose and […] after overnight recovery in media lacking antibiotic. Multiple independent isolates were further evaluated for cytotoxicity and TDP-43 expression levels.
Viability Assay. A control yeast strain with the wild-type yeast FAB1 gene and TDP-43 (“FAB1 TDP-43”, carries empty pAG416 plasmid), and the “PIKFYVE TDP-43” yeast strain, were assessed for toxicity using a propidium iodide viability assay. Both yeast strains were transferred from solid CSM-ura/2% glucose agar plates into 3 mL of liquid CSM-ura/2% glucose media for 6-8 hours at 30° C. with aeration. Yeast cultures were then diluted to an optical density at 600 nm wavelength (OD600) of 0.005 in 3 mL of CSM-ura/2% raffinose and grown overnight at 30° C. with aeration to an OD600 of 0.3-0.8. Log-phase overnight cultures were diluted to OD600 of 0.005 in CSM-ura containing either 2% raffinose or galactose and 150 μL dispensed into each well of a flat bottom 96-well plates. Compounds formulated in 100% dimethyl sulfoxide (DMSO) were serially diluted in DMSO and 1.5 μL diluted compound transferred to the 96-well plates using a multichannel pipet. Wells containing DMSO alone were also evaluated as controls for compound effects. Tested concentrations ranged from 15 μM to […]. Cultures were immediately mixed to ensure compound distribution and covered plates incubated at 30° C. for 24 hours in a stationary, humified incubator.
Upon the completion of incubation, cultures were assayed for viability using propidium iodide (PI) to stain for dead/dying cells. A working solution of PI was made where, for each plate, 1 μL of 10 mM PI was added to 10 mL of CSM-ura (raffinose or galactose). The final PI solution (50 μL/well) was dispensed into each well of a new round bottom 96-well plate. The overnight 96-well assay plate was then mixed with a multichannel pipet and 50 μL transferred to the PI-containing plate. This plate was then incubated for 30 minutes at 30° C. in the dark. A benchtop flow cytometer (Miltenyi MACSquant) was then used to assess red fluorescence ([…]), forward scatter, and side scatter (with following settings: gentle mix, high flow rate, fast measurement, 10,000 events). Intensity histograms were then gated for “PI-positive” or “PI-negative” using the raffinose and galactose cultures treated with DMSO as controls. The DMSO controls for raffinose or galactose-containing cultures were used to determine the window of increased cell death and this difference set to 100. All compounds were similarly gated and then compared to this maximal window to establish the percent reduction in PI-positive cells.

[3] = biological target: T2, PIKfyve (PIKFYVE-NanoLuc fusion in HEK293 cells) (Homo sapiens, UniProt Q9Y2I7); assay: NanoBRET TE Intracellular Kinase Assay, K-8 (Promega) cell-based assay; details: 2 hours, read-out: hPIKfyve BRET IC50
T2 construct: containing a full-length PIKfyve according to manufacturer's specifications; host or cells: HEK293
Method: NanoBRET™ TE Intracellular Kinase Assay, K-8 (Promega) Cell-Based Assay. Intracellular inhibition of PIKfyve was assayed using Promega's NanoBRET™ TE Intracellular Kinase Assay, K-8 according to manufacturer's instructions. A dilution series of test compounds was added for 2 hours to HEK293 cells transfected for a minimum of 20 hours with PIKFYVE-NanoLuc® Fusion Vector (Promega) containing a full-length PIKfyve according to manufacturer's specifications in a 96-well plate. Kinase activity was detected by addition of a NanoBRET™ tracer reagent, which was a proprietary PIKfyve inhibitor appended to a fluorescent probe (BRET, bioluminescence resonance energy transfer). Test compounds were tested at concentrations of 10, 3, 1, 0.3, 0.1, 0.03, 0.01, 0.003 μM. BRET signals were measured by a GloMax® Discover Multimode Microplate Reader (Promega) using 0.3 sec/well integration time, 450BP donor filter and 600LP acceptor filters. Active test compounds that bound PIKfyve and displaced the tracer reduced BRET signal. IC50 values were then calculated by fitting the data to the normalized BRET ratio.

[4] = values plotted in FIG. 7, read-out: PIKFYVE Biochemistry (IC50)
[5] = ADP-Glo, full-length human PIKFYVE, read-out: hPIKfyve IC50
[6] = ADP-Glo with full-length PIKfyve, read-out: PIKfyve IC50

T1 sequence (Q9Y2I7 whole entry S696N/L932S/Q995L/T998S/S1033A/Q1183K): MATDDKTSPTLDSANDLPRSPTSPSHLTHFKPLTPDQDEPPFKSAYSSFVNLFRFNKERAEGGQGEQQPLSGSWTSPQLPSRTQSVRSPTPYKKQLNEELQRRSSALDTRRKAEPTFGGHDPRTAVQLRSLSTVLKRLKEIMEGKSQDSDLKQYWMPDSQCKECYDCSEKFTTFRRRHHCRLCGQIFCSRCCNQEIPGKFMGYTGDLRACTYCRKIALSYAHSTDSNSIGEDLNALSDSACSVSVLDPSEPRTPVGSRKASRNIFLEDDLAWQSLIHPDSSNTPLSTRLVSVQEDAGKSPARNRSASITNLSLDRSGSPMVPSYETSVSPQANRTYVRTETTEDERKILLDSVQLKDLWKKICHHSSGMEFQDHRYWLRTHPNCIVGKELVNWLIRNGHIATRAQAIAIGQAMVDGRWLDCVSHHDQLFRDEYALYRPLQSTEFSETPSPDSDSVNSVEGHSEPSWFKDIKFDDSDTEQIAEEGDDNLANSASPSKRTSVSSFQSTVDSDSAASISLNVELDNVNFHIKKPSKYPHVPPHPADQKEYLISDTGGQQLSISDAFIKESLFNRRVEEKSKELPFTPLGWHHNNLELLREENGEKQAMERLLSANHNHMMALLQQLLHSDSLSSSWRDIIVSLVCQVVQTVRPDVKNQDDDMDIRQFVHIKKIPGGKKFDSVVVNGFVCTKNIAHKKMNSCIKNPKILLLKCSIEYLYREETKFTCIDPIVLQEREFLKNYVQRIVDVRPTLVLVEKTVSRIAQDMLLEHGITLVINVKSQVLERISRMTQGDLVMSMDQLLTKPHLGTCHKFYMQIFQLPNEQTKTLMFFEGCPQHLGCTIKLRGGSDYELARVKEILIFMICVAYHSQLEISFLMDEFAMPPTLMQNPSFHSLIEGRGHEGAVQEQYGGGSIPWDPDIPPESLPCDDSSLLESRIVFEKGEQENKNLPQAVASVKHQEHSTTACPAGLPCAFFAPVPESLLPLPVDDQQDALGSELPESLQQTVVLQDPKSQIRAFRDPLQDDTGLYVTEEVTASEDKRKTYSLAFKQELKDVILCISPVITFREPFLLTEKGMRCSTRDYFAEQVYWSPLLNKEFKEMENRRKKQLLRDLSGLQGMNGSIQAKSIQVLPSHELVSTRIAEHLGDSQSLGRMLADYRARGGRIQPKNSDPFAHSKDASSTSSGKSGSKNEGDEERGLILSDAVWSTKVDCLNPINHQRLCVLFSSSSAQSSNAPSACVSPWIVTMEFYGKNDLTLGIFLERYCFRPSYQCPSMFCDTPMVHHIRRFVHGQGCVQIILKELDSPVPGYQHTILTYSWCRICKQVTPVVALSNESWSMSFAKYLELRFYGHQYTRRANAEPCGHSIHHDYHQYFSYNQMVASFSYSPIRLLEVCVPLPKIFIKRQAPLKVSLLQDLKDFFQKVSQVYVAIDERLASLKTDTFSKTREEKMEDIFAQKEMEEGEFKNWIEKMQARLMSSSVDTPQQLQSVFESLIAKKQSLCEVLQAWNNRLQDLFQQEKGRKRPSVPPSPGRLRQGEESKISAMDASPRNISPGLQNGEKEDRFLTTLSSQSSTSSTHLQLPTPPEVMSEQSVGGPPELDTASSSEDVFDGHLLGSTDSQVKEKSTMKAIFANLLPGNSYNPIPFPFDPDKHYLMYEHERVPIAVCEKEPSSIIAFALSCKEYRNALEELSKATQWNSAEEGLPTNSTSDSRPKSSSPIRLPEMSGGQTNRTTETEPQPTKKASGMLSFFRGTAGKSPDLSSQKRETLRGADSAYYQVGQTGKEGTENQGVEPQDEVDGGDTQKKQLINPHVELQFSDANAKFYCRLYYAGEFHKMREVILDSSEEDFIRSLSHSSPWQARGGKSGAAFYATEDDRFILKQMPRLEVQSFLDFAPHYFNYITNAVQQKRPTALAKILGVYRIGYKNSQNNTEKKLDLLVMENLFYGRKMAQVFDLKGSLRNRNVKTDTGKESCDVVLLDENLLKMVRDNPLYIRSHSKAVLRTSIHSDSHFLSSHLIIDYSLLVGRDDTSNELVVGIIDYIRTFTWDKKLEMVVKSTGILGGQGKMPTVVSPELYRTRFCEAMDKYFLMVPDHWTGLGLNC
T2 sequence (Q9Y2I7 whole entry, the tested form may be a part): as the sequence (Q9Y2I7 whole entry S696N/L932S/Q995L/T998S/S1033A/Q1183K) above, with N696S, S932L, L995Q, S998T, A1033S, K1183Q counted along it

SMILES	IC50 [1, 4] [nM]	IC50 [2] [nM]	further results
COc1nc(N2CCOCC2)nc2c1CCN2c1ccccc1 [drawing 274]	85	4270	
c1ccc(N2CCc3c(OCc4ccncc4)nc(N4CCOCC4)nc32)cc1 [Compound 4]			IC50 [1, 5]: 10 to 100 nM
c1ccc(N2CCc3c(OCc4cccnc4)nc(N4CCOCC4)nc32)cc1 [drawing 275]	42	2680	
Cn1c(-c2ccncc2)nc2c(N3CCOCC3)ncnc21 [drawing 253]			IC50 [1, 6]: 640 nM
c1cc(-c2nc3nc(N4CCOCC4)cc(N4CCOCC4)n3n2)ccn1	9200	> 15000	
O=c1ccc(-c2ccccc2)nn1-c1cc(N2CCOCC2)n2nc(-c3ccncc3)cc2n1	295	> 15000	
COc1nc(N2CCOCC2)nc2c1CCN2c1ccccc1 [Compound 16, 4-(4-methoxy-7-phenyl-6,7-dihydro-5H-pyrrolo[2,3-d]pyrimidin-2-yl)morpholine]			IC50 [3]: 100 to 1000 nM
Cn1c(-c2ccncc2)nc2c(N3CCOCC3)ncnc21 [drawing 265]	640	> 15000	
c1ccc(N2CCc3c(Cc4ccccn4)nc(N4CCOCC4)nc32)cc1 [Compound 37, 4-(7-phenyl-4-(pyridin-2-ylmethyl)-6,7-dihydro-5H-pyrrolo[2,3-d]pyrimidin-2-yl)morpholine]			IC50 [1, 5]: 10 to 100 nM
c1ccc(Cc2nc(N3CCOCC3)nc3c2CCN3c2cccnc2)nc1 [Compound 38]			IC50 [1, 5]: 100 to 1000 nM
c1ccc(Cc2ncccc2-c2cc(N3CCOCC3)n3nc(-c4ccncc4)cc3n2)cc1	1090	> 15000	
CN(C)c1cc(N2CCOCC2)n2nc(-c3ccncc3)cc2n1			IC50 [1, 6]: 2010 nM
c1cncc(-c2nc(N3CCOCC3)nc3c2CCN3c2ccc3c(c2)OCCO3)c1 [Compound 64, 4-(7-(2,3-dihydrobenzo[b][1,4]dioxin-6-yl)-4-(pyridin-3-yl)-6,7-dihydro-5H-pyrrolo[2,3-d]pyrimidin-2-yl)morpholine]			IC50 [1, 5]: 10 to 100 nM
Cc1cccc(/C=N/Nc2nc(N3CCOCC3)c3ncccc3n2)c1	18	8210	
O=c1c(CCOc2cccnc2)cc2ncncc2n1-c1ccccc1		> 15000	
c1cc(COc2nc(N3CCOCC3)cc(-n3cc4c(n3)COCC4)n2)ccn1	1340	> 15000	
Cc1cccc(/C=N/Nc2cc(N3CCOCC3)nc(OCCc3ccc(CN)cc3)n2)c1	7	1120	
c1ccc(-c2ccnn2-c2cc(N3CCOCC3)n3nc(-c4ccncc4)nc3n2)cc1	767	> 15000	

SMILES	IC50 [1, 4] [nM]	IC50 [2] [nM]	further results
Oc1cc(-c2ccccc2)nn1-c1cc(N2CCOCC2)n2nc(-c3ccncc3)nc2n1	18	693	
Fc1cccc(-c2ccnn2-c2nc(N3CCOCC3)c3ncccc3n2)c1		5750	
c1ccc(N2CCc3c(OCC4CCCO4)nc(N4CCOCC4)nc32)cc1 (stereo not shown) [Compound 8]			IC50 [1, 5]: 10 to 100 nM
c1cncc(N2CCc3c(COC4CCNC4)nc(N4CCOCC4)nc32)c1 (stereo not shown) [Compound 13, 4-(7-(pyridin-3-yl)-4-((pyrrolidin-3-yloxy)methyl)-5,6-dihydro-5H-pyrrolo[2,3-d]pyrimidin-2-yl)morpholine]			IC50 [1, 5]: 100 to 1000 nM
CC(C)(C)OC(=O)N1CCC(OCc2nc(N3CCOCC3)nc3c2CCN3c2cccnc2)C1 (stereo not shown) [Compound 15, tert-butyl 3-((2-morpholino-7-(pyridin-3-yl)-6,7-dihydro-5H-pyrrolo[2,3-d]pyrimidin-4-yl)methoxy)pyrrolidine-1-carboxylate]			IC50 [1, 5]: 1000 to 10000 nM
c1ccc(-c2ccnc(-c3cc(N4CCOCC4)nc(OCc4ccncc4)n3)n2)cc1	32	1450	
Oc1cc(C2CCOCC2)nn1-c1cc(N2CCOCC2)n2nc(-c3ccncc3)cc2n1	253	9100	
Cc1cccc(/C=N/Nc2nc(N3CCOCC3)c3nc(-c4ccncc4)n(C)c3n2)c1 [drawing 252]			IC50 [1, 6]: 4.9 nM
Cc1cccc(/C=N/Nc2nc(N3CCOCC3)c3nc(-c4ccncc4)n(C)c3n2)c1 [drawing 266]	5	4720	
c1cc(-c2cc3nc(C4CNC4)cc(N4CCOCC4)n3n2)ccn1	8020	> 15000	
c1ccc(-c2nc(-c3cc(N4CCOCC4)nc(OCc4ccncc4)n3)no2)cc1		> 15000	
c1ccc(-c2cccc(-c3cc(N4CCOCC4)n4nc(-c5ccncc5)cc4n3)n2)cc1	14	230	
O=c1ccn(Cc2nc(N3CCOCC3)cc(-n3nccc3-c3ccccc3)n2)cc1		> 15000	
CN1CCCC(COc2nc(N3CCOCC3)nc3c2CCN3c2ccccc2)C1 (stereo not shown) [Compound 7]			IC50 [1, 5]: 1000 to 10000 nM
Cc1cccc(/C=N/Nc2cc(N3CC4CC3CO4)n3nc(-c4ccncc4)cc3n2)c1 (stereo not shown)			IC50 [1, 6]: 12 nM
c1ccc(C2CN(c3cc(N4CCOCC4)n4nc(-c5ccncc5)cc4n3)CCN2)cc1 (stereo not shown)	2660	> 15000	
c1ccc(N2CCc3c(NC4COC4)nc(N4CCOCC4)nc32)cc1 [Compound 48, 2-morpholino-N-(oxetan-3-yl)-7-phenyl-6,7-dihydro-5H-pyrrolo[2,3-d]pyrimidin-4-amine]			IC50 [1, 5]: 1000 to 10000 nM
